pIC50: −log10 of the molar value.
The compounds below were run against T1, human neutrophil elastase (HNE) (Homo sapiens, UniProt P08246) (assay: HNE Enzyme Assay (fluorogenic peptide substrate MeOSuc-Ala-Ala-Pro-Val-AMC)). Conditions: human leukocyte elastase 0.00072 U/mL, substrate 100 μM, 25° C., 30 minutes, at least two separate experiments; read-out: HNE inhibition (IC50 values).
T1 construct: purchased Sigma E8140
T1 sequence (P08246 30-247 limits assumed): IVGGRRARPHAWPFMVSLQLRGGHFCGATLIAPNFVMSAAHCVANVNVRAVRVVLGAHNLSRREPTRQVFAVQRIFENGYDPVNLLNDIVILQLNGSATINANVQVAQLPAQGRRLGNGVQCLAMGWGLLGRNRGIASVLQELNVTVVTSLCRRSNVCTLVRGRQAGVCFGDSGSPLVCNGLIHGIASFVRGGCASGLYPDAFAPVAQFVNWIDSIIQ
Assay type: biochemical
Method: Compounds of this invention were tested for potency in a human neutrophil elastase (HNE) enzyme activity assay.
Assays were performed in 96-well plates in a total assay volume of 100 μL. The final concentration of elastase enzyme (human leukocyte elastase, Sigma E8140) was 0.00072 U/mL. The peptide substrate (MeOSuc-Ala-Ala-Pro-Val-AMC, Calbiochem #324740) was used at a final concentration of 100 μM. The final concentration of DMSO was 1% in the assay buffer (0.05M Tris.HCl, 0.1M NaCl, 0.1M CaCl2, 0.0005% Brij-35, pH 7.5). The enzymatic reaction was started by addition of the enzyme and incubated at 25° C. for 30 minutes. After incubation, the reaction was stopped by addition of soybean trypsin inhibitor (Sigma T9003) at a final concentration of 50 μg/well. Fluorescence was measured using a Molecular Devices fluorescence plate reader using 380 nm excitation and 460 nm emission wavelengths.
A concentration response to each compound was performed and the effect of compound in each experiment was expressed as a percentage inhibition of the control enzyme fluorescence. Dose response curves were plotted and compound potency (IC50) was determined. Compounds were tested in at least two separate experiments.

SMILES | pIC50
Cc1c(-c2ccnn2-c2ccc(C#N)cc2)n(C(=O)NC2CC[N+](C)(C)CC2)c(=O)n1-c1cccc(C(F)(F)F)c1 [Example 32, 4-{[5-[2-(4-Cyano-phenyl)-2H-pyrazol-3-yl]-4-methyl-2-oxo-3-(3-trifluoromethyl-phenyl)-2,3-dihydro-imidazole-1-carbonyl]-amino}-1,1-dimethyl-piperidinium benzenesulfonate] | > 9.00
Cc1c(-c2ccnn2-c2ccc(C#N)cc2)n(C(=O)N[C@H]2CC[C@H]([N+](C)(C)Cc3ccccc3)CC2)c(=O)n1-c1cccc(C(F)(F)F)c1 [Example 43, Benzyl-(trans-4-{[5-[2-(4-cyano-phenyl)-2H-pyrazol-3-yl]-4-methyl-2-oxo-3-(3-trifluoromethyl-phenyl)-2,3-dihydro-imidazole-1-carbonyl]-amino}-cyclohexyl)-dimethyl-ammonium bromide] | > 9.00
Cc1c(-c2ccnn2-c2ccc(C#N)cc2)n(C(=O)NC2CCN(C(=O)CN(C)C)CC2)c(=O)n1-c1cccc(C(F)(F)F)c1 [Example 17, 5-[2-(4-Cyano-phenyl)-2H-pyrazol-3-yl]-4-methyl-2-oxo-3-(3-trifluoromethyl-phenyl)-2,3-dihydro-imidazole-1-carboxylic acid [1-(2-dimethylamino-acetyl)-piperidin-4-yl]-amide] | > 9.00
Cc1c(-c2ccnn2-c2ccc(C#N)cc2)n(C(=O)N[C@H]2CC[C@H]([N+](C)(C)C)CC2)c(=O)n1-c1cccc(C(F)(F)F)c1 [Example 41, (Trans-4-{[5-[2-(4-cyano-phenyl)-2H-pyrazol-3-yl]-4-methyl-2-oxo-3-(3-trifluoromethyl-phenyl)-2,3-dihydro-imidazole-1-carbonyl]-amino}-cyclohexyl)-trimethyl-ammonium benzene sulfonate] | > 9.00
Cc1c(-c2ccnn2-c2ccc(C#N)cc2)n(C(=O)N[C@H]2CC[C@@H]([N+](C)(C)C)CC2)c(=O)n1-c1cccc(C(F)(F)F)c1 [Example 45, (Cis-4-{[5-[2-(4-cyano-phenyl)-2H-pyrazol-3-yl]-4-methyl-2-oxo-3-(3-trifluoromethyl-phenyl)-2,3-dihydro-imidazole-1-carbonyl]-amino}-cyclohexyl)-trimethyl-ammonium benzene sulfonate] | 8.00 to 9.00
Cc1c(-c2ccnn2-c2ccc(C#N)cc2)n(C(=O)N[C@H]2CC[C@@H]([N+](C)(C)Cc3ccccc3)CC2)c(=O)n1-c1cccc(C(F)(F)F)c1 [Example 46, Benzyl-(cis-4-{[5-[2-(4-cyano-phenyl)-2H-pyrazol-3-yl]-4-methyl-2-oxo-3-(3-trifluoromethyl-phenyl)-2,3-dihydro-imidazole-1-carbonyl]-amino}-cyclohexyl)-dimethyl-ammonium bromide] | 8.00 to 9.00
Cc1c(-c2ccnn2-c2ccc(C#N)cc2)n(C(=O)N[C@@H](C)c2ccc(CN(C)C)cc2)c(=O)n1-c1cccc(C(F)(F)F)c1 [Example 14, 5-[2-(4-Cyano-phenyl)-2H-pyrazol-3-yl]-4-methyl-2-oxo-3-(3-trifluoromethyl-phenyl)-2,3-dihydro-imidazole-1-carboxylic acid [(S)-1-(4-dimethylaminomethyl-phenyl)-ethyl]-amide] | > 9.00
CC[N+](C)(C)C[C@H]1CC[C@@H](NC(=O)n2c(-c3ccnn3-c3ccc(C#N)cc3)c(C)n(-c3cccc(C(F)(F)F)c3)c2=O)CC1 [Example 55, (Cis-4-{[5-[2-(4-cyano-phenyl)-2H-pyrazol-3-yl]-4-methyl-2-oxo-3-(3-trifluoromethyl-phenyl)-2,3-dihydro-imidazole-1-carbonyl]-amino}-cyclohexylmethyl)-ethyl-dimethyl-ammonium benzene sulfonate] | 8.00 to 9.00
Cc1c(-c2ccnn2-c2ccc(C#N)cc2)n(C(=O)NC2CCC3(CC2)CC[N+](C)(C)CC3)c(=O)n1-c1cccc(C(F)(F)F)c1 [Example 66, 9-{[5-[2-(4-Cyano-phenyl)-2H-pyrazol-3-yl]-4-methyl-2-oxo-3-(3-trifluoromethyl-phenyl)-2,3-dihydro-imidazole-1-carbonyl]-amino}-3,3-dimethyl-3-azonia-spiro[5.5]undecane benzene sulfonate] | > 9.00
Cc1c(-c2ccnn2-c2ccc(C#N)cc2)n(C(=O)N[C@@H](C)C(=O)N(C)CCN(C)C)c(=O)n1-c1cccc(C(F)(F)F)c1 [Example 20, 5-[2-(4-Cyano-phenyl)-2H-pyrazol-3-yl]-4-methyl-2-oxo-3-(3-trifluoromethyl-phenyl)-2,3-dihydro-imidazole-1-carboxylic acid {(S)-1-[(2-dimethylamino-ethyl)-methyl-carbamoyl]-ethyl}-amide] | > 9.00
Cc1c(-c2ccnn2-c2ccc(C#N)cc2)n(C(=O)N[C@H](C)c2ccncc2)c(=O)n1-c1cccc(C(F)(F)F)c1 [Example 6, 5-[2-(4-Cyano-phenyl)-2H-pyrazol-3-yl]-4-methyl-2-oxo-3-(3-trifluoromethyl-phenyl)-2,3-dihydro-imidazole-1-carboxylic acid ((R)-1-pyridin-4-yl-ethyl)-amide] | > 9.00

Now from value to compound:

pIC50 | SMILES
> 9.00 | CC[C@H](NC(=O)n1c(-c2ccnn2-c2ccc(C#N)cc2)c(C)n(-c2cccc(C(F)(F)F)c2)c1=O)c1ncc(C[N+](C)(C)C)o1 [Example 74, [2-((S)-1-{[5-[2-(4-Cyano-phenyl)-2H-pyrazol-3-yl]-4-methyl-2-oxo-3-(3-trifluoromethyl-phenyl)-2,3-dihydro-imidazole-1-carbonyl]-amino}-propyl)-oxazol-5-ylmethyl]-trimethyl-ammonium benzene sulfonate]
> 9.00 | Cc1c(-c2ccnn2-c2ccc(C#N)cc2)n(C(=O)N[C@@H](C)c2ncc(C[N+](C)(C)C)o2)c(=O)n1-c1cccc(C(F)(F)F)c1 [Example 64, [2-((S)-1-{[5-[2-(4-Cyano-phenyl)-2H-pyrazol-3-yl]-4-methyl-2-oxo-3-(3-trifluoromethyl-phenyl)-2,3-dihydro-imidazole-1-carbonyl]-amino}-ethyl)-oxazol-5-ylmethyl]-trimethyl-ammonium benzene sulfonate]
> 9.00 | Cc1c(-c2ccnn2-c2ccc(C#N)cc2)n(C(=O)NC(C)c2nc(C[N+](C)(C)C)cs2)c(=O)n1-c1cccc(C(F)(F)F)c1 (racemic) [Example 85, ±[2-(1-{[5-[2-(4-Cyano-phenyl)-2H-pyrazol-3-yl]-4-methyl-2-oxo-3-(3-trifluoromethyl-phenyl)-2,3-dihydro-imidazole-1-carbonyl]-amino}-ethyl)-thiazol-4-ylmethyl]-trimethyl-ammonium benzene sulfonate]
> 9.00 | Cc1c(-c2ccnn2-c2ccc(C#N)cc2)n(C(=O)N[C@@H](C)C(=O)N2CCC(N(C)C)CC2)c(=O)n1-c1cccc(C(F)(F)F)c1 [Example 19, 5-[2-(4-Cyano-phenyl)-2H-pyrazol-3-yl]-4-methyl-2-oxo-3-(3-trifluoromethyl-phenyl)-2,3-dihydro-imidazole-1-carboxylic acid [(S)-2-(4-dimethylamino-piperidin-1-yl)-1-methyl-2-oxo-ethyl]-amide]
> 9.00 | COc1ccc(CN2CC3C(C2)C3NC(=O)n2c(-c3ccnn3-c3ccc(C#N)cc3)c(C)n(-c3cccc(C(F)(F)F)c3)c2=O)cc1 (stereo not shown) [Example 7, 5-[2-(4-Cyano-phenyl)-2H-pyrazol-3-yl]-4-methyl-2-oxo-3-(3-trifluoromethyl-phenyl)-2,3-dihydro-imidazole-1-carboxylic acid [3-(4-methoxy-benzyl)-3-aza-bicyclo[3.1.0]hex-6-yl]-amide]
> 9.00 | Cc1c(-c2ccnn2-c2ccc(C#N)cc2)n(C(=O)NC2CCN(C(=O)CCN(C)C)CC2)c(=O)n1-c1cccc(C(F)(F)F)c1 [Example 15, 5-[2-(4-Cyano-phenyl)-2H-pyrazol-3-yl]-4-methyl-2-oxo-3-(3-trifluoromethyl-phenyl)-2,3-dihydro-imidazole-1-carboxylic acid [1-(3-dimethylamino-propionyl)-piperidin-4-yl]-amide]
> 9.00 | Cc1c(-c2ccnn2-c2ccc(C#N)cc2)n(C(=O)N[C@@H]2C[C@@H]3C[N+](C)(C)C[C@@H]3C2)c(=O)n1-c1cccc(C(F)(F)F)c1 [Example 37, (3aS,5R,6aR)-5-{[5-[2-(4-Cyano-phenyl)-2H-pyrazol-3-yl]-4-methyl-2-oxo-3-(3-trifluoromethyl-phenyl)-2,3-dihydro-imidazole-1-carbonyl]-amino}-2,2-dimethyl-octahydro-cyclopenta[c]pyrrolium benzene sulfonate]
> 9.00 | Cc1c(-c2ccnn2-c2ccc(C#N)cc2)n(C(=O)N[C@H]2CC[C@H](C(=O)NCC[N+](C)(C)C)CC2)c(=O)n1-c1cccc(C(F)(F)F)c1 [Example 77, {2-[(Trans-4-{[5-[2-(4-cyano-phenyl)-2H-pyrazol-3-yl]-4-methyl-2-oxo-3-(3-trifluoromethyl-phenyl)-2,3-dihydro-imidazole-1-carbonyl]-amino}-cyclohexanecarbonyl)-amino]-ethyl}-trimethyl-ammonium benzene sulfonate]
